Reference: article PMC12226733, “Evolution of iGluR ligand specificity, polyamine regulation, and ion selectivity inferred from a placozoan epsilon receptor” (Communications Biology, 2025)
Residue numbers refer to the chain shown, from its start. Where two headings read alike, the source gives them in different places.

Tests used:
GluE1αA S642N = biological target: T1, GluE1αA S642N (Trichoplax adhaerens, UniProt B3SAW0, S167N); format: cell-based; conditions: for normalized conductance (G-V, Figure 5g), Avg: Na vs Na; for I-V current, Na vs Na, Avg of recordings: Figure 5b
T1 sequence (B3SAW0 1-341 S167N): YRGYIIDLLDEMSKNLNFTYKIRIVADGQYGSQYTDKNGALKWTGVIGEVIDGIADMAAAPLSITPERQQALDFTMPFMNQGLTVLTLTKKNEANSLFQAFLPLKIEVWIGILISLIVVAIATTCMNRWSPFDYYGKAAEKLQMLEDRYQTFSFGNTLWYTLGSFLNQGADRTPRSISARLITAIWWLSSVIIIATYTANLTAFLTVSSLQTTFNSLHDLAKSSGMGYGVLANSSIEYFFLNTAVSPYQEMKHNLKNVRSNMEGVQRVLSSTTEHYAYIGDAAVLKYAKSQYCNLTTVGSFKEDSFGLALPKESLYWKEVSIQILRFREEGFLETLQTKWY

GluE1αA D646A = format: cell-based, Trichoplax adhaerens; conditions: […]; for normalized conductance (G-V, Figure 5g), Avg: Na vs Na; for I-V current, Na vs Na, Avg of recordings: Figure 5b
GluE1αA S642Q = biological target: T2, GluE1αA S642Q (Trichoplax adhaerens, UniProt B3SAW0, S167Q); format: cell-based; conditions: […]; for normalized conductance (G-V, Figure 5g), Avg: Na vs Na; for I-V current, Na vs Na, Avg of recordings: Figure 5b
T2 sequence (B3SAW0 1-341 S167Q): T1 sequence (B3SAW0 1-341 S167N) with N167Q

GluE1αA wildtype = format: cell-based, Trichoplax adhaerens; conditions: […]; for normalized conductance (G-V, Figure 5g), Avg: Na vs Na; for I-V current, Na vs Na, Avg of recordings: Figure 5b
[1] = biological target: T3, human GluA2 receptor (wildtype) (Homo sapiens, UniProt P42262); format: cell-based; conditions: for normalized conductance (G-V, Figure 5g), Avg: Na vs Na
T3 construct: host or cells: CHO-K1
T3 sequence (P42262 25-883): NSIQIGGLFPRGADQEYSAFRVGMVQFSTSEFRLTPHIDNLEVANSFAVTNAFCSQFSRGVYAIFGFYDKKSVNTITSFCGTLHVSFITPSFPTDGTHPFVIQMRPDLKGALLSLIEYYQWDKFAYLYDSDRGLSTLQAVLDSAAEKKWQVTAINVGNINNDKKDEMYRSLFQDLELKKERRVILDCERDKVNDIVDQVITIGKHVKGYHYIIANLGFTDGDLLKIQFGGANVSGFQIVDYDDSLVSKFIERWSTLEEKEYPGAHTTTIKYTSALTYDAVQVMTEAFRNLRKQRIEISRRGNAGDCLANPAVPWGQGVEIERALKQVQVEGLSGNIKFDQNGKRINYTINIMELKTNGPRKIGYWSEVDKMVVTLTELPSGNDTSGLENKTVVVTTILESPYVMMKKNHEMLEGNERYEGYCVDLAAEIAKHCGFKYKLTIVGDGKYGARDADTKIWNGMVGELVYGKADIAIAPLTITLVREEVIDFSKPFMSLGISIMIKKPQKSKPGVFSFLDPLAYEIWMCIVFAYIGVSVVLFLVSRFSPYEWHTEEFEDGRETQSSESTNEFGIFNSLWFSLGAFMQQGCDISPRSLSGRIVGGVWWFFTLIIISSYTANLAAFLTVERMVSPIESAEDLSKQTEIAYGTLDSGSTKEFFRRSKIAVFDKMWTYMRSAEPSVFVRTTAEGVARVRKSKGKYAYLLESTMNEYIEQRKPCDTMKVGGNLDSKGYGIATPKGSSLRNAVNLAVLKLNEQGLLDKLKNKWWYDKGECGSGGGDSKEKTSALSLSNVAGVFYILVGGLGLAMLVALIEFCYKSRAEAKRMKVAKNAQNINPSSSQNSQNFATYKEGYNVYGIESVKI

## [Na+] [Na]
GluE1αA S642N
  pNa/pNa: 1.08
GluE1αA S642N; Vm 0.00
  normalized conductance (G-V, Figure 5g), Avg: 0.09
  I-V current, Na vs Na, Avg of recordings: -0.00109
GluE1αA S642N; Vm 20.00
  normalized conductance (G-V, Figure 5g), Avg: 0.06
  I-V current, Na vs Na, Avg of recordings: 0.0153
GluE1αA S642N; Vm 40.00
  normalized conductance (G-V, Figure 5g), Avg: 0.14
  I-V current, Na vs Na, Avg of recordings: 0.04
GluE1αA S642N; Vm 60.00
  normalized conductance (G-V, Figure 5g), Avg: 0.27
  I-V current, Na vs Na, Avg of recordings: 0.11
GluE1αA S642N; Vm 80.00
  normalized conductance (G-V, Figure 5g), Avg: 0.34
  I-V current, Na vs Na, Avg of recordings: 0.22
GluE1αA S642N; Vm -20.00
  normalized conductance (G-V, Figure 5g), Avg: 0.24
  I-V current, Na vs Na, Avg of recordings: -0.0458
GluE1αA S642N; Vm -40.00
  normalized conductance (G-V, Figure 5g), Avg: 0.49
  I-V current, Na vs Na, Avg of recordings: -0.16
GluE1αA S642N; Vm -60.00
  normalized conductance (G-V, Figure 5g), Avg: 0.76
  I-V current, Na vs Na, Avg of recordings: -0.37
GluE1αA S642N; Vm -80.00
  normalized conductance (G-V, Figure 5g), Avg: 1.00
  I-V current, Na vs Na, Avg of recordings: -0.64
GluE1αA D646A; Vm 0.00
  normalized conductance (G-V, Figure 5g), Avg: 0.81
  I-V current, Na vs Na, Avg of recordings: -0.000461
GluE1αA D646A; Vm 20.00
  normalized conductance (G-V, Figure 5g), Avg: 0.80
  I-V current, Na vs Na, Avg of recordings: 0.18
GluE1αA D646A; Vm 40.00
  normalized conductance (G-V, Figure 5g), Avg: 0.77
  I-V current, Na vs Na, Avg of recordings: 0.36
GluE1αA D646A; Vm 60.00
  normalized conductance (G-V, Figure 5g), Avg: 0.74
  I-V current, Na vs Na, Avg of recordings: 0.53
GluE1αA D646A; Vm 80.00
  normalized conductance (G-V, Figure 5g), Avg: 0.78
  I-V current, Na vs Na, Avg of recordings: 0.69
GluE1αA D646A; Vm -20.00
  normalized conductance (G-V, Figure 5g), Avg: 0.83
  I-V current, Na vs Na, Avg of recordings: -0.18
GluE1αA D646A; Vm -40.00
  normalized conductance (G-V, Figure 5g), Avg: 0.84
  I-V current, Na vs Na, Avg of recordings: -0.37
GluE1αA D646A; Vm -60.00
  normalized conductance (G-V, Figure 5g), Avg: 0.88
  I-V current, Na vs Na, Avg of recordings: -0.56
GluE1αA D646A; Vm -80.00
  normalized conductance (G-V, Figure 5g), Avg: 1.00
  I-V current, Na vs Na, Avg of recordings: -0.76
GluE1αA S642Q; Vm 0.00
  normalized conductance (G-V, Figure 5g), Avg: 0.20
  I-V current, Na vs Na, Avg of recordings: 0.0017
GluE1αA S642Q; Vm 20.00
  normalized conductance (G-V, Figure 5g), Avg: 0.25
  I-V current, Na vs Na, Avg of recordings: 0.0327
GluE1αA S642Q; Vm 40.00
  normalized conductance (G-V, Figure 5g), Avg: 0.52
  I-V current, Na vs Na, Avg of recordings: 0.13
GluE1αA S642Q; Vm 60.00
  normalized conductance (G-V, Figure 5g), Avg: 0.72
  I-V current, Na vs Na, Avg of recordings: 0.30
GluE1αA S642Q; Vm 80.00
  normalized conductance (G-V, Figure 5g), Avg: 0.79
  I-V current, Na vs Na, Avg of recordings: 0.51
GluE1αA S642Q; Vm -20.00
  normalized conductance (G-V, Figure 5g), Avg: 0.51
  I-V current, Na vs Na, Avg of recordings: -0.07
GluE1αA S642Q; Vm -40.00
  normalized conductance (G-V, Figure 5g), Avg: 0.84
  I-V current, Na vs Na, Avg of recordings: -0.26
GluE1αA S642Q; Vm -60.00
  normalized conductance (G-V, Figure 5g), Avg: 0.93
  I-V current, Na vs Na, Avg of recordings: -0.50
GluE1αA S642Q; Vm -80.00
  normalized conductance (G-V, Figure 5g), Avg: 1.00
  I-V current, Na vs Na, Avg of recordings: -0.73
GluE1αA wildtype; Vm 0.00
  normalized conductance (G-V, Figure 5g), Avg: 0.54
  I-V current, Na vs Na, Avg of recordings: -0.0053
GluE1αA wildtype; Vm 20.00
  normalized conductance (G-V, Figure 5g), Avg: 0.50
  I-V current, Na vs Na, Avg of recordings: 0.11
GluE1αA wildtype; Vm 40.00
  normalized conductance (G-V, Figure 5g), Avg: 0.58
  I-V current, Na vs Na, Avg of recordings: 0.23
GluE1αA wildtype; Vm 60.00
  normalized conductance (G-V, Figure 5g), Avg: 0.65
  I-V current, Na vs Na, Avg of recordings: 0.38
GluE1αA wildtype; Vm 80.00
  normalized conductance (G-V, Figure 5g), Avg: 0.67
  I-V current, Na vs Na, Avg of recordings: 0.54
GluE1αA wildtype; Vm -20.00
  normalized conductance (G-V, Figure 5g), Avg: 0.70
  I-V current, Na vs Na, Avg of recordings: -0.15
GluE1αA wildtype; Vm -40.00
  normalized conductance (G-V, Figure 5g), Avg: 0.83
  I-V current, Na vs Na, Avg of recordings: -0.34
GluE1αA wildtype; Vm -60.00
  normalized conductance (G-V, Figure 5g), Avg: 0.93
  I-V current, Na vs Na, Avg of recordings: -0.54
GluE1αA wildtype; Vm -80.00
  normalized conductance (G-V, Figure 5g), Avg: 1.00
  I-V current, Na vs Na, Avg of recordings: -0.77
[1]; Vm 0.00
  normalized conductance (G-V, Figure 5g), Avg: 0.0219
[1]; Vm 20.00
  normalized conductance (G-V, Figure 5g), Avg: 0.0142
[1]; Vm 40.00
  normalized conductance (G-V, Figure 5g), Avg: 0.0218
[1]; Vm 60.00
  normalized conductance (G-V, Figure 5g), Avg: 0.11
[1]; Vm 80.00
  normalized conductance (G-V, Figure 5g), Avg: 0.29
[1]; Vm -20.00
  normalized conductance (G-V, Figure 5g), Avg: 0.10
[1]; Vm -40.00
  normalized conductance (G-V, Figure 5g), Avg: 0.41
[1]; Vm -60.00
  normalized conductance (G-V, Figure 5g), Avg: 0.86
[1]; Vm -80.00
  normalized conductance (G-V, Figure 5g), Avg: 1.00
[1]; Vm 0.00, Figure 5b
  I-V current, Na vs Na, Avg of recordings: -0.00449
[1]; Vm 20.00, Figure 5b
  I-V current, Na vs Na, Avg of recordings: 0.00351
[1]; Vm 40.00, Figure 5b
  I-V current, Na vs Na, Avg of recordings: 0.00517
[1]; Vm 60.00, Figure 5b
  I-V current, Na vs Na, Avg of recordings: 0.02
[1]; Vm 80.00, Figure 5b
  I-V current, Na vs Na, Avg of recordings: 0.08
[1]; Vm -20.00, Figure 5b
  I-V current, Na vs Na, Avg of recordings: -0.0114
[1]; Vm -40.00, Figure 5b
  I-V current, Na vs Na, Avg of recordings: -0.0751
[1]; Vm -60.00, Figure 5b
  I-V current, Na vs Na, Avg of recordings: -0.30
[1]; Vm -80.00, Figure 5b
  I-V current, Na vs Na, Avg of recordings: -0.69
